Results on nine molecules are retold here after paper PMC3800014 (Journal of insect physiology, 2013).

Common to all, as to format: cell-based
Assay [1] deals with T1, CquiOR1 (CquiOR1•CquiOrco) (Culex quinquefasciatus, UniProt S5RQ84).
T1 sequence (S5RQ84 1-391): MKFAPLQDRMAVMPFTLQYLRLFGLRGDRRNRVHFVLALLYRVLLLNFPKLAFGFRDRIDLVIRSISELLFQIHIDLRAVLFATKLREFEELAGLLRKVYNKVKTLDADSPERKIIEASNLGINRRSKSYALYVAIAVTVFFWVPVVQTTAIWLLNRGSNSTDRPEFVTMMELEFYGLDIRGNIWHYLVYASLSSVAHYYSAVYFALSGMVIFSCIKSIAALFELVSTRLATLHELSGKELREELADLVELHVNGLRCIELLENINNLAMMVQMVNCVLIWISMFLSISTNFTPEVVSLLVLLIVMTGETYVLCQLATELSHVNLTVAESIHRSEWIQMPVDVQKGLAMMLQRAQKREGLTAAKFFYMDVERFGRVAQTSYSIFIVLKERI
The experiment in a line: two-electrode voltage clamp, Xenopus oocytes, inward current. The following applies: agonist; co-expressed CquiOrco; -70 mV. For orientation: In two-electrode clamp one electrode senses voltage and the other passes current.

Assay [2] concerns the target T2, CquiOR44 (CquiOR44•CquiOrco) (Culex quinquefasciatus, UniProt S5RSX8).
T2 sequence (S5RSX8 1-423): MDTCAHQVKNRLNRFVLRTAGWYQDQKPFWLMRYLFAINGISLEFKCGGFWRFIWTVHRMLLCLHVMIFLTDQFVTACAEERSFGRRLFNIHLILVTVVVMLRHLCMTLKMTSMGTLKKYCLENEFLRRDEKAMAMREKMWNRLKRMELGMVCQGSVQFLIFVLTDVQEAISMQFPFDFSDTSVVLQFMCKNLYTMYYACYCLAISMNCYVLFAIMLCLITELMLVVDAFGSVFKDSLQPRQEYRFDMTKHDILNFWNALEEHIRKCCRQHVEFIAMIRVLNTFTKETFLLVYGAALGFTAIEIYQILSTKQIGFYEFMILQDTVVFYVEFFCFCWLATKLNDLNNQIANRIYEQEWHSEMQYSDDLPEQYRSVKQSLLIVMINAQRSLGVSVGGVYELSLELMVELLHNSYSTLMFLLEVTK
Described as above. The following applies: agonist; co-expressed CquiOrco; -70 mV.

The target in assay [3] is T1, CquiOR1 (CquiOR1•CquiOrco). The experiment in a line: Xenopus oocyte recording, UM laboratory. The following applies: agonist; co-expressed CquiOrco; positive control.
The target of assay [4] is T3, CquiOR73 (CquiOR73•CquiOrco) (Culex quinquefasciatus, UniProt S5R433).
T3 sequence (S5R433 1-396): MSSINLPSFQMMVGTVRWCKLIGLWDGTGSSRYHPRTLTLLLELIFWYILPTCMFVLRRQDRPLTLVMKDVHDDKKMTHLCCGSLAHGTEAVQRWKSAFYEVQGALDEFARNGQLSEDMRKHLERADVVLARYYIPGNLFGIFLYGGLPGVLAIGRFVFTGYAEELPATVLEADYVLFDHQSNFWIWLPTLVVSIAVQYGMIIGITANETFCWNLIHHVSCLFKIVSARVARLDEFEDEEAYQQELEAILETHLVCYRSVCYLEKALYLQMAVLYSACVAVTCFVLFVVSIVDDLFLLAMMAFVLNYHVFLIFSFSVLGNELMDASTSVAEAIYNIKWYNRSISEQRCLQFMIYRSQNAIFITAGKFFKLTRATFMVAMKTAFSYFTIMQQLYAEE
Briefly: two-electrode voltage clamp, Xenopus oocytes, inward current. The note with it: agonist; co-expressed CquiOrco; -70 mV.

With `CCCCCCO` [1-hexanol], the “two-electrode voltage clamp, Xenopus oocytes, inward current” value (shortened to “two-electrode voltage clamp”) in assay [1] is listed as “when CquiOR1 was challenged with 1-hexanol, 1-octen-3-ol, 2-phenoxyethanol, or benzaldehyde”. With `CC1(C)C(=O)[C@]2(C)CC[C@H]1C2` [(−)-fenchone], the “two-electrode voltage clamp” value in assay [2] is “no chiral discrimination as responses to (+)- and (−)-fenchone did not differ”. With `CCc1ccc(O)cc1` [4-ethylphenol], the “Xenopus oocyte recording, UM laboratory” value in assay [3] was “medium to large responses when challenged with indole, 4-ethylphenol, 4-methylphenol, phenol”. In the case of `CC1CCC(C(C)(C)O)C(O)C1` (stereo not drawn) [p-menthane-3,8-diol], the “two-electrode voltage clamp” value in assay [2] is reported as “including known natural repellents like p-menthane-3,8-diol”. With `CCCCCCCCOC(C)=O` [octyl acetate], the “two-electrode voltage clamp” value in assay [4] is reported as “no significant response to the majority of compounds in the panel, except for octyl acetate”. Turning to `CC(=O)c1ccccc1` [acetophenone], the “Xenopus oocyte recording, UM laboratory” value in assay [3] was “phenol, acetophenone, benzaldehyde, and 6-methyl-5-hepten-2-one”.

Take `CC1(C)C(=O)[C@@]2(C)CC[C@@H]1C2` [(+)-fenchone]: in assay [2], the “two-electrode voltage clamp” value is “no chiral discrimination as responses to (+)- and (−)-fenchone did not differ”. With `C=CCc1ccc(O)c(OC)c1` [eugenol], the “two-electrode voltage clamp” value in assay [4] is recorded as “eugenol was the best ligand identified for this OR”. For `C=CC(O)CCCCC` (stereo not drawn) [1-octen-3-ol], in assay [1], the “two-electrode voltage clamp” value is on record as “when CquiOR1 was challenged with 1-hexanol, 1-octen-3-ol, 2-phenoxyethanol, or benzaldehyde”.
